Columns and labels:
PARP1/2 = format: cell-based, human; settings: TruHD fibroblasts, HD vs control; as Fig 3B; SI Fig S6C
PARG = PARG (Homo sapiens, UniProt Q86W56); format: cell-based; settings: TruHD fibroblasts, HD vs control
[1] = Fluorescence polarization with FAM-labeled 11-mer or 26-mer PAR; format: binding; settings: 25 nM FAM-labeled PAR, up to 10 μM protein
PARP1 = PARP1 (Homo sapiens, UniProt P09874); assay: In vitro PARP1 autoPARylation reaction with recombinant HTT-HAP40, western blot; format: biochemical; settings: 10 fmol recombinant PARP1, 2 h at 30 °C, increasing amounts of HTT-HAP40
PARP1, sequence (P09874 whole entry): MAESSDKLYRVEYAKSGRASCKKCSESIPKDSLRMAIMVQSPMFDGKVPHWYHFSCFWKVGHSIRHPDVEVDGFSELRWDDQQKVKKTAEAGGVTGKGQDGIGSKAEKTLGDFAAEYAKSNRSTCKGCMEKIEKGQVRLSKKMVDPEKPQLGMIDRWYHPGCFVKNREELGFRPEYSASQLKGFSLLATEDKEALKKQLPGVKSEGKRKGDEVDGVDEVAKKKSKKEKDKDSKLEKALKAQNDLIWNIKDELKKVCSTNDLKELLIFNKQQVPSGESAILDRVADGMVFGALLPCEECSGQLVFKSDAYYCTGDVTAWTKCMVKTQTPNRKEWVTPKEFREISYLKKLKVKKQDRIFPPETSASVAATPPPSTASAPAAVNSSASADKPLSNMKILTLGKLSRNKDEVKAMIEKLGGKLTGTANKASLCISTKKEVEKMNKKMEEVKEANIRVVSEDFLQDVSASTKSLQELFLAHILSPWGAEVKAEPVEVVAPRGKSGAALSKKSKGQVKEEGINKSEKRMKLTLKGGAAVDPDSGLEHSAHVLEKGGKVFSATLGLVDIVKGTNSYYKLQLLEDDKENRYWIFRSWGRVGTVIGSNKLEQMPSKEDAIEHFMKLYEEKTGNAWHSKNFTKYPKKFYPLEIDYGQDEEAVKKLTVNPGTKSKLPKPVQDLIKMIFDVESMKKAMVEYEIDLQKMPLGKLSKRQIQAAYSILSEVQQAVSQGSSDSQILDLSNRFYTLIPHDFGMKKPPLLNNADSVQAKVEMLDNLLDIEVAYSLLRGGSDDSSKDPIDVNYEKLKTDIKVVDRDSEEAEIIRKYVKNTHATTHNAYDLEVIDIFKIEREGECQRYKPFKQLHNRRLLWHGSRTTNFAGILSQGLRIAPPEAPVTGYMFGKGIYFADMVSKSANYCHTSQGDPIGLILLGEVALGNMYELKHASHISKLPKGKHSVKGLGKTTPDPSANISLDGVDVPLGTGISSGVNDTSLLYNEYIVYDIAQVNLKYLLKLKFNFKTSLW

PARG, sequence (Q86W56 whole entry): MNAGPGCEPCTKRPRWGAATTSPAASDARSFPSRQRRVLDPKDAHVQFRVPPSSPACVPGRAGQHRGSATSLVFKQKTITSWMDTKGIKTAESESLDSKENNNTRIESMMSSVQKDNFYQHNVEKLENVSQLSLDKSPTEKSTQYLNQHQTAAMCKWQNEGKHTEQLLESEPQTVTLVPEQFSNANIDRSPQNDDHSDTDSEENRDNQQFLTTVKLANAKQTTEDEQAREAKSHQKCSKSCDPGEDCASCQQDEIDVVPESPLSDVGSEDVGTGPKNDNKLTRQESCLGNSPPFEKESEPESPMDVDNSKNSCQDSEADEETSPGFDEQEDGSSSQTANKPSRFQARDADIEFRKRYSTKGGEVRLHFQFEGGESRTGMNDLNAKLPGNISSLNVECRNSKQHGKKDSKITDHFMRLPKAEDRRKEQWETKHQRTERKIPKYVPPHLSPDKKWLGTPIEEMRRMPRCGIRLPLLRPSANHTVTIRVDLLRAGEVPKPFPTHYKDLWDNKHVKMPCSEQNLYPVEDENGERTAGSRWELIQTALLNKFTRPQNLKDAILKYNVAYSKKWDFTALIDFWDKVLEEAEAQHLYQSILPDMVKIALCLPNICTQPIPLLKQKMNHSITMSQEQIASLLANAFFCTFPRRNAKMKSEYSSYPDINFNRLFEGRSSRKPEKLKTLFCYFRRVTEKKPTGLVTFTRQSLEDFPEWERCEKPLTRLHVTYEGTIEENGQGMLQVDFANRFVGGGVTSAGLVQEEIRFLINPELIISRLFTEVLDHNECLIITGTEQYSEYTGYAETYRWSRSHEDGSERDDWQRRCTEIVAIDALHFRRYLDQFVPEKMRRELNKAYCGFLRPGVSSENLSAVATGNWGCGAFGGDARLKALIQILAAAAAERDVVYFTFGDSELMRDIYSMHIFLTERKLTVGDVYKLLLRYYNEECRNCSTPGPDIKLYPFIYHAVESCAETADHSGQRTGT

In the case of `Cn1ncnc1[C@H]1c2n[nH]c(=O)c3cc(F)cc(c23)N[C@@H]1c1ccc(F)cc1` [talazoparib], the “PARP inhibitor IC50, HD cells compared to controls” value (PARP1/2) is reported as “reduced IC50 in HD cells”.
For PDD00017273, the “PARG inhibitor IC50, HD compared to control cells” value (PARG) was “no difference between HD and control cells”.
For “wild-type HTT: purified recombinant wild-type huntingtin in complex with HAP40, Q23”, the “PAR binding by fluorescence polarization” value ([1]; listed as HTT) was “binds long (26-mer) PAR chains, in preference to shorter (11-mer) substrates”, the “PAR binding by fluorescence polarization” value ([1]; listed as HTT-HAP40 Q23) was “lower binding than the positive control PAR-binding protein HUWE1, but higher binding than the negative control non-PAR-binding protein USP5” and the “Effect on PARP1 autoPARylation activity” value (PARP1) was “stimulated PARP1 activity in a dose-dependent manner”.
